According to patent US9708316B2 (BRISTOL-MYERS SQUIBB COMPANY, priority 2014, dated 2017):

Experiments:
[1] = target: HIS-TGFβR2 WT (Homo sapiens, UniProt P37173); experiment: HTRF probe-displacement assay, HIS-TGFβR2 WT; assay type: binding
[2] = target: T1, HIS-TGFβR1 T204D (Homo sapiens, UniProt P36897, T204D); experiment: HTRF probe-displacement assay, HIS-TGFβR1 T204D; assay type: binding; conditions: read-out: TGFβR1 (μM) IC50
T1 sequence (P36897 34-503 T204D): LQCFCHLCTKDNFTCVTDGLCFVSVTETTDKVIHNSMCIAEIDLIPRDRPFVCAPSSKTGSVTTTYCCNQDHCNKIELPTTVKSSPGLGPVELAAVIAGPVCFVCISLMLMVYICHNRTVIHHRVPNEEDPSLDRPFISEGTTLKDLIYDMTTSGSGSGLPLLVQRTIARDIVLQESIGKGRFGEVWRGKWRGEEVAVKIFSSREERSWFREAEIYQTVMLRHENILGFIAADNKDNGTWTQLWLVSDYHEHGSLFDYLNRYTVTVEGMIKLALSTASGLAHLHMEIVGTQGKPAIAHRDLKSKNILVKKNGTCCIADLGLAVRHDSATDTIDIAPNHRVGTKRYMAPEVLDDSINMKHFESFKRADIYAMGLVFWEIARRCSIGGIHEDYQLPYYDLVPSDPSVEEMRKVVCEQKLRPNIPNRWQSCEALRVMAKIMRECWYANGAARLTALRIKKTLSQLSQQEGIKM

Sequence of HIS-TGFβR2 WT (P37173 23-567): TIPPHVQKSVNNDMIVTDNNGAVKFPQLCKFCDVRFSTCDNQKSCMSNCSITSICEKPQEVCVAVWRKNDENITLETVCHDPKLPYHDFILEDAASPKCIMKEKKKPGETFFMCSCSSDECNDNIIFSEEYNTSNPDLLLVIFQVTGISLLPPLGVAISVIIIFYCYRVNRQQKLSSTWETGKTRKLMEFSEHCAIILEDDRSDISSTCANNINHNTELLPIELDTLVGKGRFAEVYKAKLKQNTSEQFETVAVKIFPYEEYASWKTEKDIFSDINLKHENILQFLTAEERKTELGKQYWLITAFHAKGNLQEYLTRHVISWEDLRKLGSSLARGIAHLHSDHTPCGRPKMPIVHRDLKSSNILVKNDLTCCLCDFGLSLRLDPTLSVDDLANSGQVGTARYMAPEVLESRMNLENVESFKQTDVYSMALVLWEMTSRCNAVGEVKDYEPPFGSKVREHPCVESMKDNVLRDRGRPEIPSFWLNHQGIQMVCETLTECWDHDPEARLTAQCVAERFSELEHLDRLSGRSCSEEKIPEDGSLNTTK

SMILES: COc1ccc(-c2c(-c3ccnc(NC(C)=O)c3)[nH]c3cc(N4CCOCC4)cnc23)nc1 [Example 164, N-(4-(3-(5-Methoxypyridin-2-yl)-6-morpholino-1H-pyrrolo[3,2-b]pyridin-2-yl)pyridin-2-yl)acetamide]
- IC50 [1]: > 15 µM
- IC50 [2]: 0.0053 µM

SMILES: COc1ccc(-c2c(-c3ccnc(NC(C)=O)c3)[nH]c3cc(N(C)CCO)cnc23)nc1 [Example 165, N-(4-(6-((2-Hydroxyethyl)(methyl)amino)-3-(5-methoxypyridin-2-yl)-1H-pyrrolo[3,2-b]pyridin-2-yl)pyridin-2-yl)acetamide]
- IC50 [1]: > 15 µM
- IC50 [2]: 0.0353 µM

SMILES: COc1ccc(-c2c(-c3ccnc(NC(C)=O)c3)[nH]c3cc(N4CC[C@H](O)[C@@H](O)C4)cnc23)nc1 [Example 166, N-(4-(6-((3S,4S)-3,4-Dihydroxypiperidin-l-yl)-3-(5-methoxypyridin-2-yl)-1H-pyrrolo[3,2-b]pyridin-2-yl)pyridin-2-yl)acetamide]
- IC50 [1]: > 15 µM
- IC50 [2]: 0.0132 µM

SMILES: COc1ccc(-c2c(-c3ccnc(NC(C)=O)c3)[nH]c3cc(N4CCCC4)cnc23)nc1 [Example 167, N-(4-(3-(5-Methoxypyridin-2-yl)-6-(pyrrolidin-1-yl)-1H-pyrrolo[3,2-b]pyridin-2-yl)pyridin-2-yl)acetamide]
- IC50 [1]: > 15 µM
- IC50 [2]: 0.0171 µM

SMILES: CC(=O)Nc1cc(-c2[nH]c3cc(Cl)cnc3c2-c2ncc(Cl)s2)ccn1 [Example 168, N-(4-(6-Chloro-3-(5-chlorothiazol-2-yl)-1H-pyrrolo[3,2-b]pyridin-2-yl)pyridin-2-yl)acetamide]
- IC50 [1]: 1.19 µM
- IC50 [2]: 0.0138 µM

SMILES: CC(=O)Nc1cc(-c2[nH]c3cc(Cl)cnc3c2-c2ncc(C)s2)ccn1 [Example 169]
- IC50 [1]: 0.882 µM
- IC50 [2]: 0.0023 µM

SMILES: COc1ccc(-c2c(-c3ccnc(NC(C)=O)c3)[nH]c3cc(Cl)cnc23)nc1C [Example 170, N-(4-(6-Chloro-3-(5-methoxy-6-methylpyridin-2-yl)-1H-pyrrolo[3,2-b]pyridin-2-yl)pyridin-2-yl)acetamide]
- IC50 [1]: > 15 µM
- IC50 [2]: 0.032 µM

SMILES: CC(=O)Nc1cc(-c2[nH]c3cc(Cl)cnc3c2-c2cccc(C(F)F)n2)ccn1 [Example 171, N-(4-(6-Chloro-3-(6-(difluoromethyl)pyridin-2-yl)-1H-pyrrolo[3,2-b]pyridin-2-yl)pyridin-2-yl)acetamide]
- IC50 [1]: 10.8 µM
- IC50 [2]: 0.001 µM

SMILES: CC(=O)Nc1cc(-c2[nH]c3cc(Cl)cnc3c2-c2nc(C(F)F)cs2)ccn1 [Example 172, N-(4-(6-Chloro-3-(4-(difluoromethyl)thiazol-2-yl)-1H-pyrrolo[3,2-b]pyridin-2-yl)pyridin-2-yl)acetamide]
- IC50 [1]: 3.98 µM
- IC50 [2]: 0.0004 µM

SMILES: COc1ccc(-c2c(-c3ccnc(NC(C)=O)c3)[nH]c3cc(C)cnc23)cn1 [Example 173, N-(4-(3-(6-Methoxypyridin-3-yl)-6-methyl-1H-pyrrolo[3,2-b]pyridin-2-yl)pyridin-2-yl)acetamide]
- IC50 [1]: 1.35 µM
- IC50 [2]: 0.15 µM

SMILES: CC(=O)Nc1cc(-c2[nH]c3cccnc3c2-c2cccc(OC(F)F)n2)ccn1 [Example 174, N-(4-(3-(6-(Difluoromethoxy)pyridin-2-yl)-1H-pyrrolo[3,2-b]pyridin-2-yl)pyridin-2-yl)acetamide]
- IC50 [1]: > 15 µM
- IC50 [2]: 0.0034 µM

SMILES: CC(=O)Nc1cc(-c2[nH]c3cc(Cl)cnc3c2-c2nc(C(F)(F)F)cs2)ccn1 [Example 175, N-(4-(6-Chloro-3-(4-(trifluoromethyl)thiazol-2-yl)-1H-pyrrolo[3,2-b]pyridin-2-yl)pyridin-2-yl)acetamide]
- IC50 [1]: > 15 µM
- IC50 [2]: 0.0004 µM

SMILES: CC(=O)Nc1cc(-c2[nH]c3cc(Cl)cnc3c2-c2nc(C)cs2)ccn1 [Example 176, N-(4-(6-Chloro-3-(4-methylthiazol-2-yl)-1H-pyrrolo[3,2-b]pyridin-2-yl)pyridin-2-yl)acetamide]
- IC50 [1]: 0.037 µM
- IC50 [2]: 0.0005 µM

SMILES: CC(=O)Nc1cc(-c2[nH]c3cc(Cl)cnc3c2-c2nc(C#N)cs2)ccn1 [Example 177, N-(4-(6-Chloro-3-(4-cyanothiazol-2-yl)-1H-pyrrolo[3,2-b]pyridin-2-yl)pyridin-2-yl)acetamide]
- IC50 [1]: > 15 µM
- IC50 [2]: 0.0014 µM

SMILES: CC(=O)Nc1cc(-c2[nH]c3cc(Cl)cnc3c2-c2nc(CO)cs2)ccn1 [Example 178, N-(4-(6-Chloro-3-(4-(hydroxymethyl)thiazol-2-yl)-1H-pyrrolo[3,2-b]pyridin-2-yl)pyridin-2-yl)acetamide]
- IC50 [1]: 0.176 µM
- IC50 [2]: 0.0035 µM

SMILES: CC(=O)Nc1cc(-c2[nH]c3cc(Cl)cnc3c2-c2nc(C)ns2)ccn1 [Example 179, N-(4-(6-chloro-3-(3-methyl-1,2,4-thiadiazol-5-yl)-1H-pyrrolo[3,2-b]pyrdin-2-yl)pyridin-2-yl)acetamide]
- IC50 [1]: > 15 µM
- IC50 [2]: 0.058 µM

SMILES: COc1ccc(-c2c(-c3ccnc(NC(C)=O)c3)[nH]c3cc(Cl)cnc23)nc1Cl [Example 180, N-(4-(6-Chloro-3-(6-chloro-5-methoxypyridin-2-yl)-1H-pyrrolo[3,2-b]pyridin-2-yl)pyridin-2-yl)acetamide]
- IC50 [1]: > 15 µM
- IC50 [2]: 0.0274 µM

SMILES: CC(=O)Nc1cc(-c2[nH]c3cc(F)cnc3c2-c2ncc(C(F)F)s2)ccn1 [Example 182, N-(4-(3-(5-(Difluoromethyl)thiazol-2-yl)-6-fluoro-1H-pyrrolo[3,2-b]pyridin-2-yl)pyridin-2-yl)acetamide]
- IC50 [1]: > 15 µM
- IC50 [2]: 0.182 µM

SMILES: CC(=O)Nc1cc(-c2[nH]c3cc(F)cnc3c2-c2ncc(C)s2)ccn1 [Example 183, N-(4-(6-Fluoro-3-(5-methylthiazol-2-yl)-1H-pyrrolo[3,2-b]pyridin-2-yl)pyridin-2-yl)acetamide]
- IC50 [1]: 0.407 µM
- IC50 [2]: 0.003 µM

SMILES: COc1ccc(-c2c(-c3ccnc(NC(C)=O)c3)[nH]c3cc(C)cnc23)nc1 [Example 184, N-(4-(3-(5-Methoxypyridin-2-yl)-6-methyl-1H-pyrrolo[3,2-b]pyridin-2-yl)pyridin-2-yl)acetamide]
- IC50 [1]: > 15 µM
- IC50 [2]: 6.52 µM

SMILES: CC(=O)Nc1cc(-c2[nH]c3cc(C)cnc3c2-c2ncc(C(F)F)s2)ccn1 [Example 185, N-(4-(3-(5-(Difluoromethyl)thiazol-2-yl)-6-methyl-1H-pyrrolo[3,2-b]pyridin-2-yl)pyridin-2-yl)acetamide]
- IC50 [1]: > 15 µM
- IC50 [2]: 7 µM

SMILES: CC(=O)Nc1cc(-c2[nH]c3cc(C)cnc3c2-c2csc(C)n2)ccn1 [Example 186, N-(4-(6-Methyl-3-(2-methylthiazol-4-yl)-1H-pyrrolo[3,2-b]pyridin-2-yl)pyridin-2-yl)acetamide]
- IC50 [1]: 0.821 µM
- IC50 [2]: 0.0029 µM

SMILES: CC(=O)Nc1cc(-c2[nH]c3cccnc3c2-c2cnn(C)c2)ccn1 [Example 187, N-(4-(3-(1-Methyl-1H-pyrazol-4-yl)-1H-pyrrolo[3,2-b]pyridin-2-yl)pyridin-2-yl)acetamide]
- IC50 [1]: 0.424 µM
- IC50 [2]: 0.0587 µM

SMILES: CC(=O)Nc1cc(-c2[nH]c3cccnc3c2-c2ccc(C#N)s2)ccn1 [Example 188, N-(4-(3-(5-Cyanothiophen-2-yl)-1H-pyrrolo[3,2-b]pyridin-2-yl)pyridin-2-yl)acetamide]
- IC50 [1]: 0.24 µM
- IC50 [2]: 0.0104 µM

SMILES: CC(=O)Nc1cc(-c2[nH]c3cccnc3c2-c2cn[nH]c2)ccn1 [Example 189, N-(4-(3-(1H-Pyrazol-4-yl)-1H-pyrrolo[3,2-b]pyridin-2-yl)pyridin-2-yl)acetamide]
- IC50 [1]: 0.089 µM
- IC50 [2]: 0.249 µM
